From a melting point compilation (Tetko et al.; mined from patent text by program, amines drawn as free bases though some values may be those of a salt)

| SMILES | melting point |
| --- | --- |
| COc1ccc(C(O)(C(F)(F)F)C(F)(F)F)cc1C=O | 160 to 161 °C |
| CC(C)NC(=O)c1ccc(N2CCC(N3C(=O)OCc4ccccc43)CC2)c(C#N)c1 | 200 °C |
| O=C(c1ccccc1Cl)c1cc(Cl)ccc1-n1cnnc1CCl | 139 to 140 °C |
| O=C1NC(c2ccccc2)C2=C1N=C1N=CNN1C2 (stereo unspecified) | 262 to 264 °C |
| O=c1[nH]c2c([nH]1)-c1ccncc1CC2 | > 310 °C |
| CCOC(=O)C(=O)Nc1c([N+](=O)[O-])sc2c(Cl)cc(Cl)cc12 | 177 to 180 °C |
| Cc1oc(-c2ccccc2)nc1CCc1noc(COc2cccc(CC(=O)O)c2)n1 | 93 to 94 °C |
| CC(=O)NC[C@H]1CN(c2ccc(N3C=CS(=O)(=O)CC3)c(F)c2)C(=O)O1 | 193 to 194 °C |
| COc1cc2c(cc1C(F)(F)F)N(C(=O)Nc1ccc(Sc3cccnc3)nc1)CC2 | 208 to 210 °C |
| CC(=O)c1cc2c(s1)CCCC2NC(N)=O (stereo unspecified) | 218 to 220 °C |
| Cc1ccc(C(=O)C=Cc2cc(O)c(O)c([N+](=O)[O-])c2)cc1 | 184 to 186 °C |
| Oc1ccc2c(c1)CCN(Cc1ccc(-c3ccccc3)cc1)C2 | 235 to 237 °C |
| CCCCn1c(=O)c2cn(S(=O)(=O)CCCCl)nc2n(CCCC)c1=O | 102 to 103 °C |
| COc1ccc(-n2nc(-c3ccc(F)cc3)c(-c3ccncc3)c2-c2c[nH]cn2)cc1 | 124 to 126 °C |
| O=C1COc2cc(NC(=O)C(=O)N3CCC(CCc4ccccc4)CC3)ccc2N1 | 128 to 132 °C |
| O=S(=O)(c1ccc(/C=C/c2nc(COc3ccc(CCCCn4ccnn4)cc3)co2)cc1)C(F)(F)F | 133 to 135 °C |
| CC(C)Oc1cc(CCCOc2nn(Cc3ccccc3)cc2CC(=O)O)n(Cc2ccc(F)cc2Cl)n1 | 121 to 123 °C |
| CS(=O)(=O)c1ccc(-n2nc(C(F)(F)F)cc2-c2nc3ccc(F)cc3o2)cc1 | 216 to 218 °C |
| FC(F)(F)c1cc(C(F)(F)F)n(-c2ccc(NCc3ccccc3Cl)cc2)n1 | 240 °C |
| Cc1c(C)c2c(c(C)c1O)CCC(C)(COc1ccc(CC3SC(=N)NC3=O)cc1)O2 (stereo unspecified) | 205 to 207 °C |
| NC(=O)c1ccc(N2CCN(Cc3cn4cc(Cl)ccc4n3)CC2)c(Cl)c1 | 254 to 256 °C |

| SMILES | melting point |
| --- | --- |
| CCNc1ccc(C(N)=O)cc1[N+](=O)[O-] | 226 °C |
| CC(C)(C)OC(=O)NCC1(O)CCNCC1 | 136 to 138 °C |
| CC(C)(C)NCC(O)CN1C(=O)NC(Cc2c[nH]c3ccccc23)C1=O (stereo unspecified) | 190 to 191 °C |
| COc1cc(CC(=O)O)ccc1N(C(N)=O)c1ccccc1C(F)(F)F | 218 to 220 °C |
| Cc1ccc(N(C(=O)CCl)c2c(Cl)cc(C)cc2Cl)cc1 | 140 to 141 °C |
| Cc1nc(N2CCc3ccccc3CC2)c(C#N)c(=O)n1OCC(F)(F)F | > 200 °C |
| COc1cc(C(O)Cc2c(C)cncc2C)nnc1OC (stereo unspecified) | 217 to 218 °C |
| COc1ccc(C2(C#N)CCC(=O)CC2)cc1 | 77.5 to 79.5 °C |
| NS(=O)(=O)c1ccc(-c2noc(-c3cnn4c(C(F)(F)F)cc(-c5cccc(C(F)(F)F)c5)nc34)n2)cc1 | 300 °C |
| CC(C)c1cccc(C(C)C)c1NC(=O)C(Cc1ccccc1)NC(=O)NC(C)(C)C (stereo unspecified) | 241 to 242 °C |
| CN(C)C(=S)SC(C[N+](=O)[O-])c1ccccc1Cl (stereo unspecified) | 102 to 104 °C |
| O=C(O)c1cccc(N(CCc2ccccc2)c2nnc(-c3cccc(Oc4cccc(C(F)(F)F)c4)c3)s2)c1 | 92 to 93 °C |
| NS(=O)(=O)c1cc(C(=O)OCC(=O)NCCO[N+](=O)[O-])c(NCc2ccco2)cc1Cl | 135 °C |
| CCCCCCCOc1cc2c(cc1/C(C)=C/c1ccc(C(=O)O)cc1)C(C)(C)CCCS2(=O)=O | 153 to 154 °C |
| CCCCCCCCCCCCCCCCCCOc1cc(N)cc(C(N)=O)c1 | 139 to 143 °C |
| Cn1cc(-c2cccc(N3CCc4c(cc5n4CCCC5)C3=O)c2CO)nc(Nc2ccc3c(c2)CNCC3)c1=O | 218 to 220 °C |
| O=C1OC(CN2CCC(O)(c3ccccc3)CC2)CN1c1ccccc1 (stereo unspecified) | 121 to 122 °C |
| COc1ccc(C(C)(C)C)cc1NC(=O)Nc1ccc(-c2cnc3c(c2)NC(=O)CN3)c2ccccc12 | > 230 °C |
| CC(=O)N=NCc1ccc(OCCCCCOc2ccc(C(=O)N(C(C)C)C(C)C)c(Cl)c2)cc1 | 59 to 61 °C |
| CCOC(=O)c1ccc(OCC(O)COc2cccc(O)c2C(C)=O)cc1 (stereo unspecified) | 104 to 106 °C |
| CC(C)NCC(O)COc1ccc(-c2cc3ncccc3c(=O)n2C)cc1 (stereo unspecified) | 135 to 139 °C |

| SMILES | melting point |
| --- | --- |
| O=C1c2c(Cl)cccc2-n2cnc(-c3nnc(CCl)o3)c2[C@@H]2CCN12 | 185 to 189 °C |
| CC(=O)OCc1ccc(-c2[nH]c(-c3cccc4ccccc34)nc2C(=O)Nc2nccs2)cc1 | 197 to 199 °C |
| COc1cccc(F)c1CCl | 87 to 89 °C |
| CSCc1ccc(C(=O)c2ccc(Cl)cc2)cc1 | 59 to 61 °C |
| Clc1ccc2c(c1)C(Cl)c1ccccc1CO2 (stereo unspecified) | 125 to 127 °C |
| O=C(c1ccc(Cl)c(Cl)c1)N1CCC(Br)C(c2ccccc2)=N1 (stereo unspecified) | 168 to 169 °C |
| CC(=O)NCCCC(=O)c1ccc(Cl)cc1CCC(=O)O | 90 to 92 °C |
| COc1ccnc(CCc2nc3c(C)ccnc3[nH]2)c1 | 143 to 144 °C |
| CCOc1noc(C(=O)OCc2ccccc2)c1CC(NC(=O)OC(C)(C)C)C(=O)OCc1ccccc1 (racemic) | 142 to 144 °C |
| CCCCc1nn(-c2ccc(NCc3ccccc3)cc2C(F)(F)F)c(=O)n1Cc1ccc(-c2ccccc2S(=O)(=O)NC(=O)c2ccccc2Cl)cc1 | > 107 °C |
| CC(=O)Nc1cc2c3c(c1)[nH]c(=O)n3C[C@H](C)N(CC1CC1)C2 | 244 °C |
| OCc1ccc(C2CCCc3cncn32)cc1 (stereo unspecified) | 142 to 145 °C |
| CN(C)[C@H]1CCN(c2c(-c3ccccc3)cc(C#N)c3oc(C(C)(C)C)cc23)C1 | 46 to 48 °C |
| COC(=O)C1=C(C)NC(C)=C(S(C)(=O)=O)C1c1ccccc1C(F)(F)F (stereo unspecified) | 160 to 163 °C |
| Cc1c(C=O)c2c(c(C)c1NC(=O)NC(C)(C)C)C(c1ccc(C(C)C)cc1)CO2 (single isomer, unassigned; (-)) | 209 to 210 °C |
| CC(C)(C)OC(=O)N1C[C@@H]2Cc3cc4ccccc4n3C[C@@H]2C1 (relative stereo) | 143 to 144 °C |
| CCOC(=O)c1ccc(-c2ccc(-c3ccccc3)s2)s1 | 113 to 115 °C |
| COc1ccc(C2(O)C=CC=CC2CCc2c(Cl)cncc2Cl)cc1OC1CCCC1 (stereo unspecified) | 129 to 130 °C |
| CCCCc1nc(Cl)c(C=CC(=O)OCC)n1Cc1ccc(NC(=O)c2ccccc2C(=O)O)cc1 | 180 to 181 °C |
| CCOC(=O)CCN1CCN(C2=Nc3ccccc3Oc3ccc(Cl)cc32)CC1 | 73 to 75 °C |

Second part, the compound after the results:

| melting point | SMILES |
| --- | --- |
| 158 to 159 °C | O=C(O)c1ccccc1Oc1ccc(Br)cc1NS(=O)(=O)c1cc(C(F)(F)F)cc(C(F)(F)F)c1 |
| 68.5 to 69.5 °C | CCOC(=O)CCSc1nnsc1-c1ccc(C)cc1 |
| 73 °C | Cc1ccc(CC(CNC(=S)NC(C)c2ccc(NS(C)(=O)=O)c(F)c2)COC(=O)C(C)(C)C)cc1C (stereo unspecified) |
| 172 to 174 °C | COc1ccc(C2=NN(C3CCN(S(=O)(=O)N(C)C)CC3)C(=O)C(C)(C)C2)cc1OC |
| 190 °C | COC(=O)C(=CN(C)C)N(C)c1cc(-c2ccc(Cl)cc2)on1 |
| 162 °C | c1cnc(NCCN2CCC(=C3c4ccccc4CCn4ncnc43)CC2)nc1 |
| 120 to 125 °C | C=CC(=O)OCc1c2ccccc2cc2ccccc12 |
| 181 to 185 °C | COc1ccc(-c2sc3c(c2CN(C)Cc2ccccc2)c(=O)c(C=O)cn3Cc2ccccc2OC)cc1 |
| 75 to 78 °C | COc1ccc2oc(C(=O)c3cc(F)ccc3F)cc2c1 |
| 176 °C | Cc1nn(C)c(C)c1C(=O)Nc1cccc2c1C(C)CC2(C)C (stereo unspecified) |
| 232 to 244 °C | Cc1cc(Br)cnc1CCCCNC1=NS(=O)(=O)c2ccccc21 |
| 132 to 134 °C | O=C1Nc2ccc(F)cc2C1CCCCN1CCN(c2ccccn2)CC1 (stereo unspecified) |
| 268 to 270 °C | Cn1cc(-c2cc3cccnc3[nH]2)c2cc(CCC(=O)O)ccc21 |
| 160 to 161 °C | Cc1cc(C2=NNC(=O)CC2)ccc1CCCCNC(=O)c1cccnc1 |
| 100 to 115 °C | Cc1nn(-c2c(Cl)cc(C(F)(F)F)cc2Cl)nc1Cl |
| 109 to 112 °C | O=C(Nc1ccc(-n2nc(C(F)(F)F)cc2Br)cc1)c1cccc(F)c1F |
| 168 to 171 °C | CC(=O)OCC1CCn2c(c(C3=C(c4ccccc4Cl)C(=O)OC3=O)c3ccccc32)C1 (stereo unspecified) |

| melting point | SMILES |
| --- | --- |
| 196 to 199 °C | O=C(CCl)NCc1c(O)ccc2c1CCCC2=O |
| 147 to 148 °C | N#CC(=C1C=CC(=NOC(=O)C(Cl)(Cl)Cl)C=C1)c1ccccc1 |
| 121 to 122 °C | C[Si](C)(C)CCCCCCCCCCCNc1ccc(C(=O)O)cc1 |
| 161 to 168 °C | N#CC1=Nc2cc(Cl)ccc2Oc2ccccc21 |
| 158 to 159 °C | Nc1ccc2c(c1)N(C(=O)CCCl)CC2 |
| 128 to 133 °C | CCCCCC(O)CNCCCCCCCCNCC(O)CCCCC (stereo unspecified) |
| 156 to 159 °C | O=C(O)Cc1ccc(Cl)cc1[N+](=O)[O-] |
| 64 to 67 °C | CC(C)(C)OC(=O)N1CCCC(CCN2C(=O)C3(COc4cc5c(cc43)OCO5)c3ccccc32)C1 (stereo unspecified) |
| 99 to 100 °C | COc1ccccc1C(=CC#N)c1ccccc1OC |
| 118 °C | Cc1ccc(C2=C(c3ccc(S(C)(=O)=O)cc3)CCC2)cc1 |
| 157 to 158 °C | CC1(C)OC[C@H]([C@@H](CS(=O)(=O)c2ccc(Oc3ccc(Cl)cc3)cc2)N(O)C=O)O1 |
| 207 to 208 °C | O=CC(=Cc1ccc(OC(=O)c2ccccc2)cc1)C(C=O)=Cc1ccc(OC(=O)c2ccccc2)cc1 |
| 117 to 119 °C | OCC(CO)Oc1cc(-c2ccccc2)on1 |
| 119 to 125 °C | CCOC(=O)NC(CCc1ccccc1)P(C)(=O)O (stereo unspecified) |
| 120 to 122 °C | COc1ccc(NC(=O)c2ccc(C3=NC(C)(C)Cc4cc(OC)c5c(c43)CC(C)(C)O5)cc2)cc1 |
| 250 to 252 °C | c1ccc2c(C3CCCc4cncn43)noc2c1 (stereo unspecified) |
| 139 to 141 °C | O=C(O)Cc1ccc(S(=O)c2ccc(Cl)cc2)cc1 (stereo unspecified) |
